According to patent publication US20110173707A1 (priority 2008, published 2011):
≈ marks a conversion by molar mass, not a printed value. Starred links: 1 amine or outer side, 2 acyl side, 3 side chain; linkers in the order of their positions; H or OH if unused. Positions of bridges follow the written chain, without caps; N, C: chain ends. Non-standard residues stand in square brackets, D forms with d. Residues, ends and D or L forms follow the SMILES beside them. X1 = CC1CC(C2=NC(C(=O)[*:2])CS2)N1[*:1]; NMeV = CN[CH](C(=O)O)C(C)C; X2 = O=C(C(O)CO[*:2])[*:1]; Pip = O=C(O)[CH]1CCCCN1; Dhb = C/C=C(\N)C(=O)O

Experiments:
[1] = tested on: type I IFN response (IFN-β induced Mx2-driven luciferase activity); assay: Type I IFN reporter cell assay (Mx2-driven Firefly luciferase, NIH3T3 Mx2-Luc2); type: cell-based, murine
Method: In FIG. 6A the type I IFN reporter cells were pretreated with different concentrations of Vioprolide A (0, 5, 10, 30, 50 or 100 ng/ml). After pre-treatment for two hours cells were stimulated with IFN-β (500 U/ml) in the continuous presence of the indicated Vioprolide concentrations. In FIG. 6B type I IFN reporter cells were pretreated with IFN-β ([…]). After four hours cells were additionally stimulated with different concentrations of Vioprolide A (0, 5, 10, 30, 50 or 100 ng/ml). Untreated cells were used as control (Crtl). Luciferase activity was measured after 24 hours and relative luminescent units (RLU) were calculated to one μg of protein detected by Bradford assay.
For measuring type I IFNs BAC-based reporter constructs have been used. BACs harbouring the cDNA of Firefly luciferase 2 (luc2) under control of the Mx2 promoter were engineered, NIH3T3 Mx2-Luc2. The change from Luc+ (pGL3 basic, Promega) used in the before mentioned reporter constructs to the next generation luciferase (pGL4.10, Promega) was performed, as Luc2 theoretically promised to achieve higher signal intensities and therefore might also be more practicable for further in vivo imaging experiments. This newly generated BAC was electroporated into the murine fibroblast cell line NIH/3T3.
After overnight incubation luciferase activity was determined and calculated according to protein levels to scale with the antiproliferative effects of Vioprolide. […] The median inhibitory concentration (IC50), which reduces IFN-induced responses by 50%, was calculated to be 10 ng/ml of Vioprolide A.
In FIG. 6A type I IFN reporter cells, NIH3T3 Mx2-Luc2 were pretreated with different concentrations of Vioprolide A (−, 5, 10, 30, 50 or 100 ng/ml). After pre-treatment for two hours cells were stimulated with IFN-β (500 U/ml) in the continuous presence of the indicated Vioprolide concentrations. In FIG. […] type I IFN reporter cells were pretreated with IFN-β (500 U/ml). After four hours cells were additionally stimulated with different concentrations of Vioprolide A (−, 5, 10, 30, 50 or 100 ng/ml). Untreated cells were used as control (CM). Luciferase activity was measured after 24 hours and relative luminescent units (RLU) were calculated to one μg of protein detected by Bradford assay.
Next, the effect of Vioprolide A on previously activated type I IFN signalling was addressed. This was performed to exclude a direct inhibitory interaction of this natural compound with IFN molecules or their cognate receptors type I IFN reporter cells were therefore stimulated with IFN-β four hours prior to treatment with different Vioprolide A concentrations. After overnight incubation cells were harvested and luciferase activity was assayed. […] A first significant reduction of luciferase activity (for p<0.05) could be visualized with 30 ng/ml Vioprolide A (FIG. 6B). The IC50 was identified to 20 ng/ml.

[2] = tested on: type I IFN responses (IFN-inducible Mx2-promoter, tdTomato); assay: Mx2Tom reporter cells, tdTomato expression by flow cytometry; type: cell-based; conditions: IFN-β plus different concentrations, overnight incubation
Method: This allowed assessment of the Vioprolide A effect on the IFN system on a single cell level. Thus, cells were stimulated with IFN-β as wells as different concentrations of Vioprolide A and expression of tdTomato was analyzed after overnight incubation using flow cytometry.

[3] = tested on: type II IFN response (IFN-γ, Gbp2 promoter); assay: Type II IFN reporter cell assay (Gbp2-driven Renilla luciferase, NIH3T3 Gbp2-RLuc); type: cell-based, murine; conditions: 500 U/ml IFN-γ, Vioprolide A one hour later, all concentrations tested (50, 100, 200 ng/ml); not related to protein
Method: IFN-γ reporter NIH/3T3 cells harbouring the recombinant BAC Gbp2RLuc were seeded on 96-well-plates and treated with IFN-γ ([…]) or left untreated (“−”). After one hour cells were exposed to different concentrations of Vioprolide A (−, 50, 100 or 200 ng/ml) and incubated overnight. Gbp2-driven Renilla luciferase expression was determined by luciferase assay. Results are expressed as fold induction of basal expression (n=3).
In addition, Vioprolide A might also modulate type II IFN responses. […] Hereby, expression of Renilla luciferase is driven by the type II IFN responsive promoter of the Gbp2 gene obtained using a BAC containing the GBP2 gene locus and following the method described above. In this experiment, reporter cells, NIH3T3 Gbp2-RLuc were seeded on […], stimulated with 500 U/ml IFN-γ and one hour later incubated with different concentrations of Vioprolide A. Afterwards the IFN response was analysed by quantifying Renilla luciferase activity. Since this assay was performed on a microtiter format, quantification of protein amounts by former used BCA as well as Bradford assay was impossible. […] Thus, evidence for a negative influence of Vioprolide A on both type I and type II IFN responses was provided.

[4] = tested on: type I interferon response (Mx2-promoter controlled luciferase); assay: Bioluminescent imaging of type I IFN reporter mice (BAC Mx2Luc2); type: in vivo; conditions: 20 μg i.v., IFN-β i.v. after 1 h
Method: In FIG. 8 the inhibitory response of Vioprolide A on the type I interferon response is shown. In FIG. 8A a female type I IFN reporter mice, which contain the IFN-responsive BAC Mx2Luc2, were i.v. treated with 20 μg of Vioprolide A (in 100% EtOH). First image was taken immediately after Vioprolide A treatment. After 1 h mice were i.v. injected with 5.000 U/ml IFN-β (PBL). Three hours after IFN-treatment second series of images were taken. For control one animal was only treated with Vioprolide A or with IFN, respectively. Bioluminescent images were obtained using the IVIS200 System (Xenogen). […] Rainbow scales indicate number of photons measured per second×cm2×sr.
For the following in vivo experiment 20 μg of Vioprolide A were employed. This amount was calculated according to a publication appointing the lethal dose of this compound to be 3 mg/kg and moreover to concentrations used for anti-tumour studies Thus, type I IFN reporter mice were intravenously injected with Vioprolide A and subjected for bioluminescent imaging. After one hour mice were additionally treated with IFN-β and responses were assessed after a three-hour incubation time. […]
In FIG. 8A female type I IFN reporter mice, which contain the IFN-responsive BAC Mx2Luc2, were i.v. treated with 20 μg of Vioprolide A (in 100% EtOH). […] Rainbow scales indicate number of photons measured per second×cm2×sr.

[5] = tested on: vesicular stomatitis virus (VSV); type: cell-based
[6] = according to a publication; cited from earlier work

C/C=C1\NC(=O)C2CSC(=N2)C2CC(C)N2C(=O)C(CC(C)C)NC(=O)C(C)NC(=O)C(O)COC(=O)C(C(C)C)N(C)C(=O)C(C(C)O)NC(=O)C2CCCCN2C1=O (stereo not shown) [Vioprolide A] (AL[X1][Dhb][Pip]T[NMeV]; linker N-C via X2; configuration not given here)
reporter expression ([1]; 100 ng/ml, IFN-β four hours prior to treatment): significant reduction of reporter expression
Mx2-driven luciferase activity at strongest inhibition ([1]; 100 ng/ml, pre-treatment 2 h before IFN-β, FIG. 6A): dramatic decrease of Mx2-driven luciferase activity down to background levels
IC50 on previously activated type I IFN signalling ([1]; IFN-β (500 U/ml) four hours prior to Vioprolide A, FIG. 6B): 0.02 µg/mL (≈ 0.0232 µM)
concentration giving first significant reduction of luciferase activity (p<0.05) ([1]; IFN-β four hours prior to Vioprolide A, FIG. 6B): 30 ng/mL
median inhibitory concentration (IC50), which reduces IFN-induced responses by 50% ([1]; Vioprolide A two hours prior to IFN-β (500 U/ml), luciferase related to protein, FIG. 6A): 0.01 µg/mL
impact on IFN responses in vitro compared within the class of Vioprolides ([1]; cell culture systems, screening): highest impact on IFN responses in vitro
effect on the type I IFN response ([1]; pre-treatment 2 h before IFN-β, all concentrations tested (5-100 ng/ml)): inhibitory effect
effect on tdTomato reporter expression [2]: dose-dependent inhibitory effect
response to type II IFN (Renilla luciferase activity) [3]: decreased response to type II IFN
light emission after IFN treatment relative to combined IFN and Vioprolide stimulation ([4]; 3 h after IFN, average radiance, FIG. 8B): ten times higher
luciferase activity by optical imaging versus animal given IFN-β alone ([4]; imaging 3 h after IFN, one mouse per stimulation): less luciferase activity
effect on IFN-mediated antiviral activities [5]: inhibitory effect on IFN-mediated antiviral activities
lethal dose [6]: 3 mg/kg
